# Data published in patent US9592221B2, “Antibacterial agents: aryl myxopyronin derivatives” (priority 2012, dated 2017).
# pIC50: −log10 of the molar value.
# Legend:
# [1] = target: E. coli RNA polymerase σ^70 holoenzyme (Escherichia coli, UniProt P0A8T7+P0A8V2); test: Fluorescence-detected RNA polymerase assay, E. coli RNA polymerase; format: biochemical; details: read-out: IC50 E. coli RNAP
# [2] = test system: Staphylococcus aureus ATCC 12600; test: MIC, spiral gradient endpoint assay, S. aureus ATCC 12600; format: cell-based; details: ATCC12600; Staphylococcus aureus ATCC 12600
# [3] = test system: Acinetobacter baumannii ATCC 19606; test: MIC, spiral gradient endpoint assay, A. baumannii; format: cell-based; details: ATCC19606; Acinetobacter baumannii ATCC 19606
# [4] = test system: Escherichia coli D21f2tolC; test: MIC, spiral gradient endpoint assay, E. coli D21f2tolC; format: cell-based; details: Escherichia coli, D21F2TOLC, read-out: MIC E. coli D21f2toIC
# [5] = test system: Mycobacterium tuberculosis H37Rv; test: MIC, microplate Alamar Blue assay, M. tuberculosis; format: cell-based
# [6] = test system: Bacillus anthracis Vollum 1b; test: microbe, parasite or virus in culture; format: cell-based; details: Bacillus anthracis, VOLLUM1B, read-out: MIC B. anthracis Vollum-1b
# [7] = test system: Francisella tularensis SCHU4; test: microbe, parasite or virus in culture; format: cell-based; details: Francisella tularensis, SCHU4, read-out: MIC F. tularensis SCHU4
# Burkholderia mallei CHN7 = test: microbe, parasite or virus in culture; format: cell-based; details: Burkholderia mallei, CHN7, read-out: MIC B. mallei CHN7
# [8] = test system: Burkholderia pseudomallei Human/Blood/OH/US/1994; test: microbe, parasite or virus in culture; format: cell-based; details: Burkholderia pseudomallei, read-out: MIC B. pseudomallei Human/Blood/OH
# Brucella melitensis 16M = test: microbe, parasite or virus in culture; format: cell-based; details: Brucella melitensis, 16M, read-out: MIC B. melitensis 16M
# E. coli RNA polymerase σ^70 holoenzyme, sequence (P0A8T7 whole entry): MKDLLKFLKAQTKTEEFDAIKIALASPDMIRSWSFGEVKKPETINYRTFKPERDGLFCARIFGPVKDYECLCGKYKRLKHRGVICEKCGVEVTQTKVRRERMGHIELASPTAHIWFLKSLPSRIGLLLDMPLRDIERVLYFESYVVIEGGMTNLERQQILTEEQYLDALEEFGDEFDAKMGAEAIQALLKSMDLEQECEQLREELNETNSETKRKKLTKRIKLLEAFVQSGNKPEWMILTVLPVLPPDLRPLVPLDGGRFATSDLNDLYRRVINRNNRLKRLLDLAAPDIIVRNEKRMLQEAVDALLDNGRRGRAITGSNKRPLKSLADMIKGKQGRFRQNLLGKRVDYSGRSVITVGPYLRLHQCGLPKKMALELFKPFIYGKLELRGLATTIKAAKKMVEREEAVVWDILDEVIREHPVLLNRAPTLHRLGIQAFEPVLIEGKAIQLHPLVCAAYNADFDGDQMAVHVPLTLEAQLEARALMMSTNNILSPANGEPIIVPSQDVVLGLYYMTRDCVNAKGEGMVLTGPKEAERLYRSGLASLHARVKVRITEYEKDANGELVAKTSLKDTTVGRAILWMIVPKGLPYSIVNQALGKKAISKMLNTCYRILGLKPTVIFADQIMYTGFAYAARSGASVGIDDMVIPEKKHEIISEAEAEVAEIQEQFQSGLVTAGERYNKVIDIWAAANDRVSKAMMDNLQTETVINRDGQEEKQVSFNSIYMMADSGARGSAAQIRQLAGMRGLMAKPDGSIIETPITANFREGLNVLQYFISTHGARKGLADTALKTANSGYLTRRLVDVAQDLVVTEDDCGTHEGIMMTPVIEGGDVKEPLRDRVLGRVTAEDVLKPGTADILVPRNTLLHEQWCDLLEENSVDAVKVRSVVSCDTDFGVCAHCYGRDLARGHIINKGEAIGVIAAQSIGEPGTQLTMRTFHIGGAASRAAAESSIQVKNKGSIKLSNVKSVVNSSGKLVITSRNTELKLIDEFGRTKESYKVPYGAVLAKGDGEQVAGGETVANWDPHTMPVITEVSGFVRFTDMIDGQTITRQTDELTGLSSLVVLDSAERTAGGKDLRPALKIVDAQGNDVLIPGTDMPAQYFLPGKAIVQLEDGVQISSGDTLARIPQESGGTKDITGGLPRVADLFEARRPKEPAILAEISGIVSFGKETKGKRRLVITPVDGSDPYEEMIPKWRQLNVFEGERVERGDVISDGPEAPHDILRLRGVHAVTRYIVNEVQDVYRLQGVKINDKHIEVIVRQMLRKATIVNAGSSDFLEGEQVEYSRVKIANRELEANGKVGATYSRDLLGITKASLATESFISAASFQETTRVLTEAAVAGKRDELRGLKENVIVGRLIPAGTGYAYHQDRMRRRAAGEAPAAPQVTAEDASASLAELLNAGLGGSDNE
# E. coli RNA polymerase σ^70 holoenzyme, sequence (P0A800 whole entry, further chain): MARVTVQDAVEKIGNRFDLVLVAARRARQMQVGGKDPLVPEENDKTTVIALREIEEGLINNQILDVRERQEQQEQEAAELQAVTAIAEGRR
# E. coli RNA polymerase σ^70 holoenzyme, sequence (P0A8V2 whole entry): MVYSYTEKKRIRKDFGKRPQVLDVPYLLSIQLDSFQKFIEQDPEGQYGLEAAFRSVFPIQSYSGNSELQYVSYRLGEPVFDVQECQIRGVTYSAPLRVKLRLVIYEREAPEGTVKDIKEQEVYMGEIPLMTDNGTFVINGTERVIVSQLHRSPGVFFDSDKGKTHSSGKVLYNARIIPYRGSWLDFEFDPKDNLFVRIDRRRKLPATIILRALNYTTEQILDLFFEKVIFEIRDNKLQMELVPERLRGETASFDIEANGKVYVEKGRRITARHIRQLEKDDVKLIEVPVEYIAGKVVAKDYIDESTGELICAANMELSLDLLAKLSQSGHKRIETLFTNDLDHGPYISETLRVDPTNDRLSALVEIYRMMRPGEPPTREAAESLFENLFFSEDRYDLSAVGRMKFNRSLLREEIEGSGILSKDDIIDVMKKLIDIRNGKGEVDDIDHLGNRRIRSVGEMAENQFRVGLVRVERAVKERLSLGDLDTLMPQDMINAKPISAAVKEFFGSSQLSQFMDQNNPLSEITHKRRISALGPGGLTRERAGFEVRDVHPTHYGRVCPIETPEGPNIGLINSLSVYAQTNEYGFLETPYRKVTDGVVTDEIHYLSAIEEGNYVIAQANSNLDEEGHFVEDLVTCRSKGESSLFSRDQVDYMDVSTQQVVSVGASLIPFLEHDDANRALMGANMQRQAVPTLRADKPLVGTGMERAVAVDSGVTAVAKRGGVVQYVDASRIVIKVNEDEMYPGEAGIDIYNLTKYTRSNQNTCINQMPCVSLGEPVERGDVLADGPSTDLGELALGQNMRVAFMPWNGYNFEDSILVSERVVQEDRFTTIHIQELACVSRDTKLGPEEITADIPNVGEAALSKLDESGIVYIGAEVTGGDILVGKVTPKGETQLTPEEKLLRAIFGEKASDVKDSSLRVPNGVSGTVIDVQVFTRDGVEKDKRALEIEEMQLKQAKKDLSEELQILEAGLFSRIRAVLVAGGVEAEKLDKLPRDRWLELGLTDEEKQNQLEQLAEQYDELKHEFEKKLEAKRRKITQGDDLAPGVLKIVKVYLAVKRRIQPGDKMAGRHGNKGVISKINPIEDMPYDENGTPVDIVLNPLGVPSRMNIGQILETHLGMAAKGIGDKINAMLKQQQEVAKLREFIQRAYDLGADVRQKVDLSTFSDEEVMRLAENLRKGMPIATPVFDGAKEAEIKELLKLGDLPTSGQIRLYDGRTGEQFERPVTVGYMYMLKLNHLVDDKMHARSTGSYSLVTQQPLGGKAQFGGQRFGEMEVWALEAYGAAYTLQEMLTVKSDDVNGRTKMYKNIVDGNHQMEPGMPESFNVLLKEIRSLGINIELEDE
# E. coli RNA polymerase σ^70 holoenzyme, sequence (P00579 whole entry, further chain): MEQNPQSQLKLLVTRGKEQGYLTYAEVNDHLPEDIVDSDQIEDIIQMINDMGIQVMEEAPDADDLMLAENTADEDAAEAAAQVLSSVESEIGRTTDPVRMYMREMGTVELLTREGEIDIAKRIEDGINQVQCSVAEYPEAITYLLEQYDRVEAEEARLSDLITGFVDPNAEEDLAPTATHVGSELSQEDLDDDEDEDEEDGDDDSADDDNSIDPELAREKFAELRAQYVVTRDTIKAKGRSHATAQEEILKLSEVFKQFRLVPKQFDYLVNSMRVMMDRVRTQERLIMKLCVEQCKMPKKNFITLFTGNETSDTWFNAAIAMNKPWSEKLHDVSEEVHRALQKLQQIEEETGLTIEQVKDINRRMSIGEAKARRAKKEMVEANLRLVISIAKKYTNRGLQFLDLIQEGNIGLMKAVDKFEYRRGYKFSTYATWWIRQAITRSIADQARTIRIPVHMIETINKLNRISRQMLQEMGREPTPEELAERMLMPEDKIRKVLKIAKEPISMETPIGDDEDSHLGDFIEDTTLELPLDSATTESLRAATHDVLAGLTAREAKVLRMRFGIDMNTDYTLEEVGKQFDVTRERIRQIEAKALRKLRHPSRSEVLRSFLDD
# E. coli RNA polymerase σ^70 holoenzyme, sequence (P0A7Z4 whole entry, further chain): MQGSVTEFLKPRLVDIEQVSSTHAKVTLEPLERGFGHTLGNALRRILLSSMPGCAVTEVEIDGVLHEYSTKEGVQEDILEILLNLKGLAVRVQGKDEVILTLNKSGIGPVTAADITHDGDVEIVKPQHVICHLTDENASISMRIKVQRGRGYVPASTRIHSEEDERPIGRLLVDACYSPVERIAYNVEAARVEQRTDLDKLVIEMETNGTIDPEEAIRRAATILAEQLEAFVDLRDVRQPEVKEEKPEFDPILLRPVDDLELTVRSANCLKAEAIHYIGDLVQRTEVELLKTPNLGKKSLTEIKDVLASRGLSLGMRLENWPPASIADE
Compound,pIC50 [1],MIC [2] [µg/mL],MIC [3] [µg/mL],MIC [4] [µg/mL],MIC [5] [µg/mL],MIC [6] [µg/mL],MIC [7] [µg/mL],MIC (Burkholderia mallei CHN7) [µg/mL],MIC [8] [µg/mL],MIC (Brucella melitensis 16M) [µg/mL]
"COC(=O)N/C=C/CCC(C)c1cc(O)c(C(=O)C(C)=Cc2cccc(OCCC(C)C)c2)c(=O)o1 (mixture of isomers) [APY51, methyl (E)-5-(4-hydroxy-3-((E/Z)-3-(3-isopentyloxy)phenyl)-2-methacryloyl-2-oxo-2H-pyran-6-yl)hex-1-enylcarbamate]",6.00,> 40,> 40,0.5,–,–,–,–,–,–
"CCc1ccc(C=C(C)C(=O)c2c(O)cc(C(C)CC/C=C/NC(=O)OC)oc2=O)s1 (mixture of isomers) [APY64, methyl (E)-5-(5-((E/Z)-3-(5-ethylthiophen-2-yl)-2-methylacryloyl)-4-hydroxy-6-oxo-6H-pyran-2-yl)hex-1-enylcarbamate]",6.70,9,> 40,0.8,30,50,50,> 50,> 50,10
"COC(=O)N/C=C/CCC(C)c1cc(O)c(C(=O)C(C)=Cc2cc3ccc(CCC(F)(F)F)cc3s2)c(=O)o1 (mixture of isomers) [APY114, methyl ((1E)-5-(4-hydroxy-3-(2-methyl-3-(6-(3,3,3-trifluoropropyl)benzo[b]thiophen-2-yl)acryloyl)-2-oxo-2H-pyran-6-yl)hex-1-en-1-yl)carbamate]",6.52,> 40,> 40,0.2,–,–,–,–,–,–
"COC(=O)N/C=C/CCC(C)c1cc(O)c(C(=O)C(C)=Cc2ccc(CCC3CCCCC3)s2)c(=O)o1 (mixture of isomers) [APY62, methyl (E)-5-(5-((E/Z)-3-(5-(2-cyclohexylethyl)thiophen-2-yl)-2-methylacryloyl)-4-hydroxy-6-oxo-6H-pyran-2-yl)hex-1-enylcarbamate]",8.00,2,> 40,10,–,–,–,–,–,–
"CCCCCc1ccc(C=C(C)C(=O)c2c(O)cc(C(C)CC/C=C/NC(=O)OC)oc2=O)cc1 (mixture of isomers) [APY72, methyl (E)-5-(4-hydroxy-5-((E/Z)-2-methyl-3-(4-pentylphenyl)acryloyl)-6-oxo-6H-pyran-2-yl)hex-1-enylcarbamate]",6.70,2,> 40,0.2,–,3,10,10,50,2
"COC(=O)N/C=C/CCC(C)c1cc(O)c(C(=O)C(C)=Cc2ccc(C)s2)c(=O)o1 (mixture of isomers) [APY69, methyl (E)-5-(4-hydroxy-5-((E/Z)-2-methyl-3-(5-methylthiophen-2-yl)acryloyl)-6-oxo-6H-pyran-2-yl)hex-1-enylcarbamate]",6.00,> 40,> 40,7,–,–,–,–,–,–
"COC(=O)N/C=C/CCC(C)c1cc(O)c(C(=O)C(C)=Cc2cc(CCC(F)(F)F)cn2C)c(=O)o1 (mixture of isomers) [APY135, methyl ((1E)-5-(4-hydroxy-3-(2-methyl-3-(1-methyl-4-(3,3,3-trifluoropropyl)-1H-pyrrol-2-yl)acryloyl)-2-oxo-2H-pyran-6-yl)hex-1-en-1-yl)carbamate]",7.00,10,> 40,2,–,–,–,–,–,–
"CCc1ccc(C=C(C)C(=O)c2c(O)cc(C(C)CC/C=C/NC(=O)OC)oc2=O)cc1 (mixture of isomers) [APY70, methyl (E)-5-(5-((E/Z)-3-(4-ethylphenyl)-2-methylacryloyl)-4-hydroxy-6-oxo-6H-pyran-2-yl)hex-1-enylcarbamate]",< 5.22,20,> 40,1,30,50,> 50,> 50,> 50,30
COC(=O)N/C=C/CCC(C)c1cc(O)c(C(=O)C(C)=Cc2cnc(N3CCCCC3)s2)c(=O)o1 (stereo not shown) [APY142],6.22,20,> 40,1,–,–,–,–,–,–
"CCc1ccc2cc(C=C(C)C(=O)c3c(O)cc(C(C)CC/C=C/NC(=O)OC)oc3=O)oc2c1 (mixture of isomers) [APY110, methyl ((1E)-5-(3-(3-(6-ethylbenzofuran-2-yl)-2-methylacryloyl)-4-hydroxy-2-oxo-2H-pyran-6-yl)hex-1-en-1-yl)carbamate]",6.70,8,> 40,0.3,30,–,–,–,–,–
"CCCc1ccc(C=C(C)C(=O)c2c(O)cc(C(C)CC/C=C/NC(=O)OC)oc2=O)s1 (mixture of isomers) [APY58, methyl (E)-5-(4-hydroxy-5-((E/Z)-2-methyl-3-(5-propylthiophen-2-yl)acryloyl)-6-oxo-6H-pyran-2-yl)hex-1-enylcarbamate]",7.10,1,> 40,0.2,10,10,50,50,50,> 50
"CCCCc1ccc(C=C(C)C(=O)c2c(O)cc(C(C)CCCCNC(=O)OC)oc2=O)s1 (mixture of isomers) [APY67, methyl 5-(5-((E/Z)-3-(5-butylthiophen-2-yl)-2-methylacryloyl)-4-hydroxy-6-oxo-6H-pyran-2-yl)hexylcarbamate]",6.00,5,> 40,0.5,50,30,50,> 50,> 50,10
"COC(=O)N/C=C/CCC(C)c1cc(O)c(C(=O)C(C)=Cc2ccc(CCCCCC(F)(F)F)s2)c(=O)o1 (mixture of isomers) [APY82, methyl ((1E)-5-(4-hydroxy-3-(2-methyl-3-(5-(6,6,6-trifluorohexyl)thiophen-2-yl)acryloyl)-2-oxo-2H-pyran-6-yl)hex-1-en-1-yl)carbamate]",8.30,10,20,0.07,> 50,3,10,6,6,2
"CCCc1ccc(C=C(C)C(=O)c2c(O)cc(C(C)CC/C=C/NC(=O)OC)oc2=O)cc1 (mixture of isomers) [APY71, methyl (E)-5-(4-hydroxy-5-((E/Z)-2-methyl-3-(4-propylphenyl)acryloyl)-6-oxo-6H-pyran-2-yl)hex-1-enylcarbamate]",6.40,4,> 40,0.5,–,30,> 50,> 50,> 50,10
"CCCc1cn(C)c(C=C(C)C(=O)c2c(O)cc(C(C)CC/C=C/NC(=O)OC)oc2=O)n1 (mixture of isomers) [APY143, methyl ((1E)-5-(4-hydroxy-3-(2-methyl-3-(1-methyl-4-propyl-1H-imidazol-2-yl)acryloyl)-2-oxo-2H-pyran-6-yl)hex-1-en-1-yl)carbamate]",6.00,> 40,> 40,10,–,–,–,–,–,–
"COC(=O)N/C=C/CCC(C)c1cc(O)c(C(=O)C(C)=Cc2cc3ccc(CCC(F)(F)F)cc3o2)c(=O)o1 (mixture of isomers) [APY112, methyl ((1E)-5-(4-hydroxy-3-(2-methyl-3-(6-(3,3,3-trifluoropropyl)benzofuran-2-yl)acryloyl)-2-oxo-2H-pyran-6-yl)hex-1-en-1-yl)carbamate]",6.52,> 40,> 40,0.2,–,–,–,–,–,–
"COC(=O)N/C=C/CCC(C)c1cc(O)c(C(=O)C(C)=Cc2ccc(C)cc2)c(=O)o1 (mixture of isomers) [APY57, methyl (E)-5-(4-hydroxy-5-((E/Z)-2-methyl-3-p-tolylacryloyl)-6-oxo-6H-pyran-2-yl)hex-1-enylcarbamate]",< 5.22,> 40,> 40,1,–,–,–,–,–,–
"COC(=O)N/C=C/CCC(C)c1cc(O)c(C(=O)C(C)=Cc2ccc(OCC3CCCO3)cc2)c(=O)o1 (mixture of isomers) [APY54, methyl (E)-5-(4-hydroxy-3-((E/Z)-2-methyl-3-(4-((tetrahydrofuran-2-yl)methoxy)phenyl)acryloyl)-2-oxo-2H-pyran-6-y)hex-1-enylcarbamate]",< 5.22,> 40,> 40,7,–,–,–,–,–,–
"COC(=O)N/C=C/CCC(C)c1cc(O)c(C(=O)C(C)=Cc2ccc(OCCC(C)C)cc2)c(=O)o1 (mixture of isomers) [APY50, methyl (E)-5-(4-hydroxy-3-((E/Z)-3-(4-isopentyloxy)phenyl)-2-methacryloyl-2-oxo-2H-pyran-6-yl)hex-1-enylcarbamate]",< 5.22,> 40,> 40,2,–,–,–,–,–,–
"COC(=O)N/C=C/CCC(C)c1cc(O)c(C(=O)C(C)=Cc2cc3ccc(CCC(C)C)cc3o2)c(=O)o1 (mixture of isomers) [APY111, methyl ((1E)-5-(4-hydroxy-3-(3-(6-isopentylbenzofuran-2-yl)-2-methylacryloyl)-2-oxo-2H-pyran-6-yl)hex-1-en-1-yl)carbamate]",7.30,> 40,> 40,0.3,–,–,–,–,–,–
